Assay: xn = mol fraction of the nth substance listed
Settings: Liquid, Vibrating tube method

CCCCCCCCCC [decane] + CCCCCC
Settings | mass density [kg/m3]
342.8 K, 1000 kPa, x2 = 0.8991 | 626.74
342.8 K, 2000 kPa, x2 = 0.8991 | 628.11
342.8 K, 3000 kPa, x2 = 0.8991 | 629.48
342.8 K, 4000 kPa, x2 = 0.8991 | 630.85
342.8 K, 5000 kPa, x2 = 0.8991 | 632.19
342.8 K, 6000 kPa, x2 = 0.8991 | 633.52
342.8 K, 7000 kPa, x2 = 0.8991 | 634.85
342.8 K, 8000 kPa, x2 = 0.8991 | 636.16
342.8 K, 9000 kPa, x2 = 0.8991 | 637.46
342.8 K, 10000 kPa, x2 = 0.8991 | 638.73
342.8 K, 11000 kPa, x2 = 0.8991 | 639.99
342.8 K, 12000 kPa, x2 = 0.8991 | 641.23
342.8 K, 13000 kPa, x2 = 0.8991 | 642.43
342.8 K, 14000 kPa, x2 = 0.8991 | 643.64
342.8 K, 15000 kPa, x2 = 0.8991 | 644.8
342.8 K, 16000 kPa, x2 = 0.8991 | 645.95
342.8 K, 17000 kPa, x2 = 0.8991 | 647.07
342.8 K, 18000 kPa, x2 = 0.8991 | 648.18
342.8 K, 19000 kPa, x2 = 0.8991 | 649.24
342.8 K, 20000 kPa, x2 = 0.8991 | 650.3
342.8 K, 21000 kPa, x2 = 0.8991 | 651.32
342.8 K, 22000 kPa, x2 = 0.8991 | 652.31
342.8 K, 23000 kPa, x2 = 0.8991 | 653.28
342.8 K, 24000 kPa, x2 = 0.8991 | 654.23
342.8 K, 25000 kPa, x2 = 0.8991 | 655.16
343.05 K, 1000 kPa, x2 = 0.0456 | 690.21
343.05 K, 2000 kPa, x2 = 0.0456 | 691.25
343.05 K, 3000 kPa, x2 = 0.0456 | 692.26
343.05 K, 4000 kPa, x2 = 0.0456 | 693.3
343.05 K, 5000 kPa, x2 = 0.0456 | 694.32
343.05 K, 6000 kPa, x2 = 0.0456 | 695.32
343.05 K, 7000 kPa, x2 = 0.0456 | 696.31
343.05 K, 8000 kPa, x2 = 0.0456 | 697.29
343.05 K, 9000 kPa, x2 = 0.0456 | 698.26
343.05 K, 10000 kPa, x2 = 0.0456 | 699.22
343.05 K, 11000 kPa, x2 = 0.0456 | 700.16
343.05 K, 12000 kPa, x2 = 0.0456 | 701.08
343.05 K, 13000 kPa, x2 = 0.0456 | 702
343.05 K, 14000 kPa, x2 = 0.0456 | 702.89
343.05 K, 15000 kPa, x2 = 0.0456 | 703.77
343.05 K, 16000 kPa, x2 = 0.0456 | 704.64
343.05 K, 17000 kPa, x2 = 0.0456 | 705.5
343.05 K, 18000 kPa, x2 = 0.0456 | 706.36
343.05 K, 19000 kPa, x2 = 0.0456 | 707.2
343.05 K, 20000 kPa, x2 = 0.0456 | 708.02
343.05 K, 21000 kPa, x2 = 0.0456 | 708.84
343.05 K, 22000 kPa, x2 = 0.0456 | 709.65
343.05 K, 23000 kPa, x2 = 0.0456 | 710.45
343.05 K, 24000 kPa, x2 = 0.0456 | 711.25
343.05 K, 25000 kPa, x2 = 0.0456 | 712.03
343.06 K, 1000 kPa, x2 = 0.2185 | 681.09
343.06 K, 1000 kPa, x2 = 0.7524 | 641.66
343.06 K, 2000 kPa, x2 = 0.2185 | 682.19
343.06 K, 2000 kPa, x2 = 0.7524 | 643.07
343.06 K, 3000 kPa, x2 = 0.2185 | 683.33
343.06 K, 3000 kPa, x2 = 0.7524 | 644.43
343.06 K, 4000 kPa, x2 = 0.2185 | 684.4
343.06 K, 4000 kPa, x2 = 0.7524 | 645.8
343.06 K, 5000 kPa, x2 = 0.2185 | 685.47
343.06 K, 5000 kPa, x2 = 0.7524 | 647.1
343.06 K, 6000 kPa, x2 = 0.2185 | 686.52
343.06 K, 6000 kPa, x2 = 0.7524 | 648.4
343.06 K, 7000 kPa, x2 = 0.2185 | 687.54
343.06 K, 7000 kPa, x2 = 0.7524 | 649.65
343.06 K, 8000 kPa, x2 = 0.2185 | 688.57
343.06 K, 8000 kPa, x2 = 0.7524 | 650.88
343.06 K, 9000 kPa, x2 = 0.2185 | 689.57
343.06 K, 9000 kPa, x2 = 0.7524 | 652.12
343.06 K, 10000 kPa, x2 = 0.2185 | 690.55
343.06 K, 10000 kPa, x2 = 0.7524 | 653.31
343.06 K, 11000 kPa, x2 = 0.2185 | 691.53
343.06 K, 11000 kPa, x2 = 0.7524 | 654.46
343.06 K, 12000 kPa, x2 = 0.2185 | 692.48
343.06 K, 12000 kPa, x2 = 0.7524 | 655.59
343.06 K, 13000 kPa, x2 = 0.2185 | 693.45
343.06 K, 13000 kPa, x2 = 0.7524 | 656.72
343.06 K, 14000 kPa, x2 = 0.2185 | 694.36
343.06 K, 14000 kPa, x2 = 0.7524 | 657.81
343.06 K, 15000 kPa, x2 = 0.2185 | 695.27
343.06 K, 15000 kPa, x2 = 0.7524 | 658.89
343.06 K, 16000 kPa, x2 = 0.2185 | 696.19
343.06 K, 16000 kPa, x2 = 0.7524 | 659.96
343.06 K, 17000 kPa, x2 = 0.2185 | 697.07
343.06 K, 17000 kPa, x2 = 0.7524 | 661
343.06 K, 18000 kPa, x2 = 0.2185 | 697.94
343.06 K, 18000 kPa, x2 = 0.7524 | 662.03
343.06 K, 19000 kPa, x2 = 0.2185 | 698.83
343.06 K, 19000 kPa, x2 = 0.7524 | 663.03
343.06 K, 20000 kPa, x2 = 0.2185 | 699.68
343.06 K, 20000 kPa, x2 = 0.7524 | 664.01
343.06 K, 21000 kPa, x2 = 0.2185 | 700.53
343.06 K, 21000 kPa, x2 = 0.7524 | 664.97
343.06 K, 22000 kPa, x2 = 0.2185 | 701.36

Source: the NIST ThermoML archive (doi:10.1021/je200721d)
